Read-outs that look alike come from different tables or passages of the source.
Columns and labels:
[1] = tested on: human primary leukemia cells from an AML patient with MLL-ENL fusion oncogene; assay: Colony-forming assay; type: cell-based; details: 336 h, colonies counted after 14 days, read-out: colony-forming ability EC50
Experimental: Colony-forming assay using non-serum culture media represents a useful method to assess self-renewal capacity of stem-like cancer cells. The number of cell colonies formed in the assay reflects the proportion of stem-like cells in a given number of cancer cells. […] Human MLL-rearranged AML samples will be obtained from the Children’s Oncology Group (COG) Biopathology Center, in accordance with the IRB-approved protocol H-24170. The colony-forming assay was performed according to our previously published method. After 14 days, the colony number of each culture dish was counted and imported into Prism 5.0 and EC50 values were determined by using the sigmoidal dose response curve fitting in the software.

human MAO-B = target: T1, human MAO-B (Homo sapiens, UniProt P27338); assay: MAO-B inhibition (MAO-Glo); type: biochemical
T1 construct: purchased Sigma
T1 sequence (P27338 1-520): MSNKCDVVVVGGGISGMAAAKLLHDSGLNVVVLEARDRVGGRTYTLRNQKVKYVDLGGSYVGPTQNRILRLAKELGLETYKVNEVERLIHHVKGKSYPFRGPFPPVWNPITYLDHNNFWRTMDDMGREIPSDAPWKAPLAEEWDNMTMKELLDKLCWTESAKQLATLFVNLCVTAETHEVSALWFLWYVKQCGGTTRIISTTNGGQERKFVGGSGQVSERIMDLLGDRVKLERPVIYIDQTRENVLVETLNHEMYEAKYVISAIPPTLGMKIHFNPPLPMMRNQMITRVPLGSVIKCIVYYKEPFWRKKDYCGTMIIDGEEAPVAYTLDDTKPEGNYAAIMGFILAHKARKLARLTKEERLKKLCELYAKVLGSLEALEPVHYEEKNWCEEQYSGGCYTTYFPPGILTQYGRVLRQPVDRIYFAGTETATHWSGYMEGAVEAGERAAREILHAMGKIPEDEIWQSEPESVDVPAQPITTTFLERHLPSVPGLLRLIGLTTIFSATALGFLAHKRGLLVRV
Experimental: (§1) Because MAO-A and -B play important roles in the degradation of neurotransmitters (e.g., serotonin and dopamine) in the central nervous system, selective inhibition for LSD1 is highly desirable.
(§2) Recombinant human MAO-A and -B were purchased from Sigma. The inhibitory activity was determined using MAO-Glo assay kit (Promega). In brief, following the manufacturer’s protocol, assays were performed in 384-well white plates (Corning) using MAO-A or -B (100 nM) with a final volume of 20 μL. Reactions were quenched after 60 min by adding reconstituted luciferin detection reagent (20 μL/well); 20 min after addition of the detection reagent, the luminescence of each well was measured using Beckman DTX-880 microplate reader. IC50 calculation was similar to that of LSD1.

MV4-11 leukemia cells [2] = assay: Antiproliferation assay (XTT), MV4-11; type: cell-based; details: Homo sapiens, MV4-11, 360 h; 15-day treatment; MLL-rearranged leukemia; read-out: MV4-11 EC50 (antiproliferative)
Experimental: Next, these three compounds were tested for their cellular activity against proliferation of MV4-11 leukemia cells bearing MLL-AF4 fusion oncogene.
(§3) These compounds were incubated with a panel of six human leukemia and solid tumor cell lines, including two MLL-rearranged leukemia cells MV4-11 and Molm-13 containing fusion oncogenes MLL-AF4 and -AF9, respectively. […] Also included in the studies are breast cancer MCF-7 and prostate cancer LNCaP cells.
(§4) Proliferation inhibition assay for suspension leukemia cells was performed using an XTT assay kit (Roche) with our previously described method. Proliferation inhibition assay for solid tumor cell lines MCF-7 and LNCaP was performed using our previous described MTT assay. The antiproliferation EC50 values were determined by Prism, and the reported results were the mean values of at least three independent experiments.

recombinant human LSD1 = target: T2, recombinant human LSD1 (Homo sapiens, UniProt O60341); assay: LSD1 enzyme inhibition assay (HRP/Amplex red); type: biochemical; details: for Selectivity index for LSD1: LSD1 versus MAO-A and -B
T2 construct: Human LSD1 catalytic domain (172-833) was cloned; made in house; host or cells: E. coli BL21-CodonPlus (Agilent)
Experimental: The LSD1 inhibition assay was performed with the reaction rate (i.e., amount of the product H2O2, Additional file 1: Figure S2) being quantitatively determined by adding horseradish peroxidase (HRP) and a HRP fluorescence substrate Amplex red.
Human LSD1 catalytic domain (172-833) was cloned and inserted into pGEX-KG vector. The correctness of insert was verified by sequencing. BL21-CodonPlus strain (Agilent) was transformed with the pGEX-KG-LSD1 plasmid and cultured at 37 °C in LB medium containing ampicillin (50 μg/mL) and chloramphenicol (34 μg/mL). Upon reaching an optical density of ~0.9 at 600 nm, LSD1 expression was induced by adding 0.2 mM isopropylthiogalactoside at 25 °C for 20 h. Cells were harvested, lysed, and centrifuged at 20,000 rpm for 20 min, and the supernatant was collected and subjected to an affinity column chromatography using the glutathione sepharose resin.
The inhibition assay for the recombinant LSD1 was performed using a published protocol, with the reaction rate (i.e., amount of the product H2O2) being quantitatively determined by adding HRP and a HRP fluorescence substrate Amplex red. […] The total volume of the reaction mixture is 60 μL. After 20 min, 60-μL solution containing HRP (0.01 unit) and Amplex red (80 μM) was added and the fluorescence of each well was determined using a Beckman DTX-880 microplate reader (excitation at 535 and emission at 595 nm). Data were imported into Prism 5.0 (GraphPad), and the IC50 values were calculated by using the sigmoidal dose response curve fitting in the software. The reported IC50s were the mean values of at least three independent experiments.

NB4 leukemia cells = assay: Antiproliferation assay (XTT), NB4; type: cell-based; details: Homo sapiens, 360 h; 15-day treatment; non-MLL leukemia cells; read-out: NB4 EC50 (antiproliferative)
Experimental: as §3, with “We next examined the spectrum of antitumor activity for compounds 1–4. These” for “These”, “cells. […]” for “cells.”
as §4

Molm-13 leukemia cells [3] = assay: Antiproliferation assay (XTT), Molm-13; type: cell-based; details: Homo sapiens, MOLM-13, 360 h; 15-day treatment; MLL-rearranged leukemia; read-out: Molm-13 EC50 (antiproliferative)
Experimental: as §3, §4

[4] = tested on: breast cancer MCF-7 cells; assay: Antiproliferation assay (MTT), MCF-7; type: cell-based; details: Homo sapiens, MCF7, 360 h, 15-day treatment, read-out: MCF-7 EC50 (antiproliferative)
Experimental: as §3, §4

[5] = tested on: prostate cancer LNCaP cells; assay: Antiproliferation assay (MTT), LNCaP; type: cell-based; details: Homo sapiens, 360 h, 15-day treatment, read-out: LNCaP EC50 (antiproliferative)
Experimental: as §3, with “We next examined the spectrum of antitumor activity for compounds 1–4. These” for “These”, “cells. […]” for “cells.”
as §4

human MAO-A = target: T3, human MAO-A (Homo sapiens, UniProt P21397); assay: MAO-A inhibition (MAO-Glo); type: biochemical; details: read-out: MAO-A IC50
T3 construct: purchased Sigma
T3 sequence (P21397 1-527): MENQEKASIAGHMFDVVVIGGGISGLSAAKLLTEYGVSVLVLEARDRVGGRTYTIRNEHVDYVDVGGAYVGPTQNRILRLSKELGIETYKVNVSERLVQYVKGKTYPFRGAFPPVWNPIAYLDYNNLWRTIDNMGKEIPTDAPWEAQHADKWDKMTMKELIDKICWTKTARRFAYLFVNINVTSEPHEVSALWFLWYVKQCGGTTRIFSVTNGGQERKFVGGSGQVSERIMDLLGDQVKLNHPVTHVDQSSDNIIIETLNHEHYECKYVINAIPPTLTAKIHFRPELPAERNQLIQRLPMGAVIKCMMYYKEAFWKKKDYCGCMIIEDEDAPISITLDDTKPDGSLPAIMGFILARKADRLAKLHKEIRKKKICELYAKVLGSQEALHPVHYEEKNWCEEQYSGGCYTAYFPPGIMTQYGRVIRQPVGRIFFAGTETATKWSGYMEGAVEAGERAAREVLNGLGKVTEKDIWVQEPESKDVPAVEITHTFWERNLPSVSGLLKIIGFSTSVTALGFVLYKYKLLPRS
Experimental: as §1, with “The cyclopropylamine LSD1 inhibitors were generally derived from MAO-A/-B inhibitor tranylcypromine, an antidepression drug. Because” for “Because”
as §2

U937 leukemia cells = assay: Antiproliferation assay (XTT), U937; type: cell-based; details: Homo sapiens, U-937, 360 h; 15-day treatment; non-MLL leukemia cells; read-out: U937 EC50 (antiproliferative)
Experimental: as §3, with “We next examined the spectrum of antitumor activity for compounds 1–4. These” for “These”, “cells. […]” for “cells.”
as §4

MV4-11 leukemia cells [6] = tested on: MV4-11 leukemia cells; set-up: method as in PMID 22924785; details: read-out: MV4-11 proliferation EC50; cited from earlier work
[7] = tested on: H3K79 methylation in MV4-11 cells; set-up: method as in PMID 23795283; details: read-out: IC50 for inhibition of H3K79 methylation; cited from earlier work
Molm-13 leukemia cells [8] = tested on: Molm-13 leukemia cells; set-up: method as in PMID 22924785; details: read-out: Molm-13 proliferation EC50; cited from earlier work

| SMILES | EC50 [1] [µM] | IC50 (human MAO-B) [µM] | EC50 (MV4-11 leukemia cells [2]) [µM] | IC50 (recombinant human LSD1) [µM] | selectivity for LSD1 inhibition over MAO-A and -B (recombinant human LSD1) [fold] | Selectivity index for LSD1 (recombinant human LSD1) | EC50 (NB4 leukemia cells) [µM] | EC50 (Molm-13 leukemia cells [3]) [µM] | EC50 [4] [µM] | EC50 [5] [µM] | IC50 (human MAO-A) [µM] | EC50 (U937 leukemia cells) [µM] | fold less potent than compound 2 against LSD1 (recombinant human LSD1) | EC50 (MV4-11 leukemia cells [6]) [µM] | IC50 [7] [µM] | EC50 (Molm-13 leukemia cells [8]) [µM] |
| --- | --- | --- | --- | --- | --- | --- | --- | --- | --- | --- | --- | --- | --- | --- | --- | --- |
| CN1CCN(C(=O)CNC2CC2c2ccc(Br)cc2)CC1 (centres unmarked) [Compound 3] | 0.48 | 16.3 | 0.02 | 0.035 | > 200 | >208 | > 50 | 0.18 | 13.5 | 29.9 | 7.3 | > 50 | – | – | – | – |
| NC1CC1c1ccc(-c2ccc(F)nc2)cc1 (centres unmarked) [Compound 4] | – | 3.1 | 1.4 | 5.3 | – | <0.58 | > 50 | 12 | > 50 | > 50 | 0.42 | 17.5 | ~ 70 fold | – | – | – |
| CC(C)N(CCCNC(=O)Nc1ccc(C(C)(C)C)cc1)CC1OC(n2cnc3c(N)ncnc32)C(O)C1O (centres unmarked) [SYC-522] | – | – | – | – | – | – | – | – | – | – | – | – | – | ~4 | ~0.2 | ~7 |

Source: paper PMC4789278, “Pharmacological inhibition of LSD1 for the treatment of MLL-rearranged leukemia” (Journal of Hematology & Oncology, 2016)
